Data from EPA's ToxValDB 9.5 (doi:10.2903/j.efsa.2016.4432).

Experiments:
Rattus norvegicus = conditions: acute; oral; mortality
Folsomia candida = conditions: chronic/long-term; mortality
Apis mellifera = conditions: acute, mortality
Tagia sp. = conditions: chronic/long-term; growth
Daphnia magna = conditions: chronic/long-term; duration: 21 days; mortality
Oryctolagus sp. = conditions: developmental; development
Anas platyrhynchos = conditions: short-term; oral; feed; mortality
Mus musculus = conditions: acute; mortality
Typhlodromus pyri = assay: LR50; higher = less toxic; conditions: not reported; mortality

Question: `COCc1cnc(C2=NC(C)(C(C)C)C(=O)N2)c(C(=O)O)c1` (centres undefined) [Imazamox] was tested. Which LD50 (Rattus norvegicus) did it give?
Answer: Its LD50 is over 5000 mg/kg-day.

Question: What about the LC50 (Cyprinodon variegatus; acute, duration: 96 hours, mortality) of the same compound?
Answer: The LC50 was over 97 µg/mL.

Question: And the NOEC (Cyprinodon variegatus; chronic/long-term, duration: 35 days, other)?
Answer: Its NOEC is 1.22 mg/L.

Question: And the LD50 (Colinus virginianus; acute, oral, mortality)?
Answer: Its LD50 is 3490 mg/kg-day.

Question: What about the NOAEL (Colinus virginianus; reproduction developmental) of the same compound?
Answer: Its NOAEL is 209 mg/kg-day.

Question: And the NOEC (Folsomia candida)?
Answer: Its NOEC is 3.36 mg/kg.

Question: What about the LD50 (Apis mellifera; dermal) of the same compound?
Answer: The LD50 was over 58 µg/piece.

Question: And the LD50 (Apis mellifera; oral, unspecified)?
Answer: The LD50 was over 40 µg/piece.

Question: What about the NOEC (Tagia sp.) of the same compound?
Answer: Its NOEC is 5.85 mg/kg.

Question: What about the NOEC (Daphnia magna) of the same compound?
Answer: Its NOEC is 137 mg/L.

Question: And the NOAEL (Oryctolagus sp.)?
Answer: Its NOAEL is 300 mg/kg-day.

Question: And the LD50 (Anas platyrhynchos)?
Answer: Its LD50 is over 1930 mg/kg-day.

Question: And the LD50 (Mus musculus)?
Answer: Its LD50 is over 5000 mg/kg-day.

Question: And the LR50 (Typhlodromus pyri)?
Answer: Its LR50 is 1340 mL/ha.
